Experimental data published in ChEMBL document CHEMBL2086254, “Synthesis and identification of novel indolo[2,3-a]pyrimido[5,4-c]carbazoles as a new class of anti-cancer agents” (Eur J Med Chem, 2012).

How the values were obtained:
Type in all cases: functional
MCF7 = test: Cytotoxicity against human MCF7 cells assessed as cell growth at 10 uM after 48 hrs by SRB assay relative to control; settings: MCF7, 48 h, read-out: Activity
T47D = test: Cytotoxicity against human T47D cells assessed as cell growth at 10 uM after 48 hrs by SRB assay relative to control; settings: read-out: Activity
UACC-62 = test: Cytotoxicity against human UACC62 cells assessed as cell growth at 10 uM after 48 hrs by SRB assay relative to control; settings: UACC-62, 48 h, read-out: Activity
RXF 393 = test: Cytotoxicity against human RXF393 cells assessed as cell growth at 10 uM after 48 hrs by SRB assay relative to control; settings: RXF 393, 48 h, read-out: Activity
NCI-H522 = test: Cytotoxicity against human NCI-H522 cells assessed as cell growth at 10 uM after 48 hrs by SRB assay relative to control; settings: NCI-H522, 48 h, read-out: Activity
M14 = test: Cytotoxicity against human M14 cells assessed as cell growth at 10 uM after 48 hrs by SRB assay relative to control; settings: M14, 48 h, read-out: Activity
SK-MEL-5 = test: Cytotoxicity against human SK-MEL-5 cells assessed as cell growth at 10 uM after 48 hrs by SRB assay relative to control; settings: SK-MEL-5, 48 h, read-out: Activity
KM12 = test: Cytotoxicity against human KM12 cells assessed as cell growth at 10 uM after 48 hrs by SRB assay relative to control; settings: KM12, 48 h, read-out: Activity
NCI-H23 = test: Cytotoxicity against human NCI-H23 cells assessed as cell growth at 10 uM after 48 hrs by SRB assay relative to control; settings: NCI-H23, 48 h, read-out: Activity
MDA-MB-435 = test: Cytotoxicity against human MDA-MB-435 cells assessed cell growth at 10 uM after 48 hrs by SRB assay relative to control
ACHN = test: Cytotoxicity against human ACHN cells assessed as cell growth at 10 uM after 48 hrs by SRB assay relative to control; settings: read-out: Activity
UACC-257 = test: Cytotoxicity against human UACC257 cells assessed as cell growth at 10 uM after 48 hrs by SRB assay relative to control; settings: UACC-257, 48 h, read-out: Activity
IGROV-1 = test: Cytotoxicity against human IGROV1 cells assessed as cell growth at 10 uM after 48 hrs by SRB assay relative to control; settings: IGROV-1, 48 h, read-out: Activity
SW-620 = test: Cytotoxicity against human SW620 cells assessed as cell growth at 10 uM after 48 hrs by SRB assay relative to control; settings: SW-620, 48 h, read-out: Activity
HCT-116 = test: Cytotoxicity against human HCT116 cells assessed as cell growth at 10 uM after 48 hrs by SRB assay relative to control; settings: HCT-116, 48 h, read-out: Activity
Malme-3M = test: Cytotoxicity against human MALME-3M cells assessed as cell growth at 10 uM after 48 hrs by SRB assay relative to control; settings: read-out: Activity
NCI/ADR-RES = test: Cytotoxicity against human NCI/ADR-RES cells assessed as cell growth at 10 uM after 48 hrs by SRB assay relative to control; settings: read-out: Activity
BT-549 = test: Cytotoxicity against human BT549 cells assessed as cell growth at 10 uM after 48 hrs by SRB assay relative to control; settings: BT-549, 48 h, read-out: Activity
SK-OV-3 = test: Cytotoxicity against human SKOV3 cells assessed as cell growth at 10 uM after 48 hrs by SRB assay relative to control; settings: SK-OV-3, 48 h, read-out: Activity
LOX IMVI = test: Cytotoxicity against human LOXIMVI cells assessed as cell growth at 10 uM after 48 hrs by SRB assay relative to control; settings: read-out: Activity
A549 = test: Cytotoxicity against human A549 cells assessed as cell growth at 10 uM after 48 hrs by SRB assay relative to control; settings: A549, 48 h, read-out: Activity
SF-539 = test: Cytotoxicity against human SF539 cells assessed as cell growth at 10 uM after 48 hrs by SRB assay relative to control; settings: SF-539, 48 h, read-out: Activity
K562 = test: Cytotoxicity against human K562 cells assessed as cell growth at 10 uM after 48 hrs by SRB assay relative to control; settings: K562, 48 h, read-out: Activity
OVCAR-3 = test: Cytotoxicity against human OVCAR3 cells assessed as cell growth at 10 uM after 48 hrs by SRB assay relative to control; settings: OVCAR-3, 48 h, read-out: Activity
NCI-H226 = test: Cytotoxicity against human NCI-H226 cells assessed as cell growth at 10 uM after 48 hrs by SRB assay relative to control; settings: NCI-H226, 48 h, read-out: Activity
SF-295 = test: Cytotoxicity against human SF295 cells assessed as cell growth at 10 uM after 48 hrs by SRB assay relative to control; settings: SF-295, 48 h, read-out: Activity
UO-31 = test: Cytotoxicity against human UO31 cells assessed as cell growth at 10 uM after 48 hrs by SRB assay relative to control; settings: UO-31, 48 h, read-out: Activity
HCC 2998 = test: Cytotoxicity against human HCC2998 cells assessed as cell growth at 10 uM after 48 hrs by SRB assay relative to control; settings: HCC 2998, 48 h, read-out: Activity
A498 = test: Cytotoxicity against human A498 cells assessed as cell growth at 10 uM after 48 hrs by SRB assay relative to control; settings: A498, 48 h, read-out: Activity
SK-MEL-2 = test: Cytotoxicity against human SK-MEL-2 cells assessed as cell growth at 10 uM after 48 hrs by SRB assay relative to control; settings: SK-MEL-2, 48 h, read-out: Activity
SK-MEL-28 = test: Cytotoxicity against human SK-MEL-28 cells assessed as cell growth at 10 uM after 48 hrs by SRB assay relative to control; settings: SK-MEL-28, 48 h, read-out: Activity
[1] = Cytotoxicity against human Hs 578T cells assessed as cell growth at 10 uM after 48 hrs by SRB assay relative to control; settings: read-out: Activity
NCI-H460 = test: Cytotoxicity against human NCI-H460 cells assessed as cell growth at 10 uM after 48 hrs by SRB assay relative to control; settings: NCI-H460, 48 h, read-out: Activity
SNB-75 = test: Cytotoxicity against human SNB75 cells assessed as cell growth at 10 uM after 48 hrs by SRB assay relative to control; settings: SNB-75, 48 h, read-out: Activity
HCT-15 = test: Cytotoxicity against human HCT15 cells assessed as cell growth at 10 uM after 48 hrs by SRB assay relative to control; settings: HCT-15, 48 h, read-out: Activity

For `Cn1cc(-c2nc(N)[nH]c(=O)c2-c2cn(C)c3ccccc23)c2ccccc21`, which growth at 10 µM (MCF7) is on record?
The growth at 10 µM was 77.6%.

What about the growth at 10 µM (T47D) of the same compound?
Its growth at 10 µM is 93.8%.

And the growth at 10 µM (UACC-62)?
Its growth at 10 µM is 96.1%.

What about the growth at 10 µM (RXF 393) of the same compound?
The growth at 10 µM was 131%.

And the growth at 10 µM (NCI-H522)?
The growth at 10 µM was 86.7%.

What about the growth at 10 µM (M14) of the same compound?
Its growth at 10 µM is 97.6%.

And the growth at 10 µM (SK-MEL-5)?
The growth at 10 µM was 101%.

And the growth at 10 µM (KM12)?
The growth at 10 µM was 103%.

And the growth at 10 µM (NCI-H23)?
Its growth at 10 µM is 95%.

And the Activity (MDA-MB-435)?
Its Activity is 109.77%.

And the growth at 10 µM (ACHN)?
The growth at 10 µM was 98.5%.

What about the growth at 10 µM (UACC-257) of the same compound?
The growth at 10 µM was 95.6%.

And the growth at 10 µM (IGROV-1)?
Its growth at 10 µM is 68.9%.

What about the growth at 10 µM (SW-620) of the same compound?
Its growth at 10 µM is 94%.

What about the growth at 10 µM (HCT-116) of the same compound?
The growth at 10 µM was 99%.

What about the growth at 10 µM (Malme-3M) of the same compound?
Its growth at 10 µM is 112%.

What about the growth at 10 µM (NCI/ADR-RES) of the same compound?
Its growth at 10 µM is 108%.

What about the growth at 10 µM (BT-549) of the same compound?
Its growth at 10 µM is 102%.

And the growth at 10 µM (SK-OV-3)?
Its growth at 10 µM is 95.8%.

And the growth at 10 µM (LOX IMVI)?
Its growth at 10 µM is 118%.

And the growth at 10 µM (A549)?
Its growth at 10 µM is 101%.

What about the growth at 10 µM (SF-539) of the same compound?
Its growth at 10 µM is 141%.

And the growth at 10 µM (K562)?
Its growth at 10 µM is 111%.

And the growth at 10 µM (OVCAR-3)?
The growth at 10 µM was 109%.

What about the growth at 10 µM (NCI-H226) of the same compound?
The growth at 10 µM was 91%.

And the growth at 10 µM (SF-295)?
Its growth at 10 µM is 90.7%.

And the growth at 10 µM (UO-31)?
Its growth at 10 µM is 64.6%.

And the growth at 10 µM (HCC 2998)?
The growth at 10 µM was 120%.

And the growth at 10 µM (A498)?
The growth at 10 µM was 112%.

What about the growth at 10 µM (SK-MEL-2) of the same compound?
Its growth at 10 µM is 102%.

And the growth at 10 µM (SK-MEL-28)?
Its growth at 10 µM is 118%.

What about the growth at 10 µM [1] of the same compound?
The growth at 10 µM was 103%.

And the growth at 10 µM (NCI-H460)?
The growth at 10 µM was 90.7%.

What about the growth at 10 µM (SNB-75) of the same compound?
The growth at 10 µM was 103%.

And the growth at 10 µM (HCT-15)?
Its growth at 10 µM is 117%.

Which results are given for `Cn1cc(-c2c(-c3cn(C)c4ncccc34)nc(N)[nH]c2=O)c2ccccc21`?
growth at 10 µM (MCF7): 86%; growth at 10 µM (T47D): 83%; growth at 10 µM (UACC-62): 97%; growth at 10 µM (RXF 393): 124%; growth at 10 µM (NCI-H522): 88%; growth at 10 µM (M14): 103%; growth at 10 µM (SK-MEL-5): 96.5%; growth at 10 µM (KM12): 102%; growth at 10 µM (NCI-H23): 92.6%; Activity (MDA-MB-435): 98.77%; growth at 10 µM (ACHN): 87.6%; growth at 10 µM (UACC-257): 103%; growth at 10 µM (IGROV-1): 87.1%; growth at 10 µM (SW-620): 97.5%; growth at 10 µM (HCT-116): 98%; growth at 10 µM (Malme-3M): 107%; growth at 10 µM (NCI/ADR-RES): 101%; growth at 10 µM (BT-549): 95.8%; growth at 10 µM (SK-OV-3): 98.3%; growth at 10 µM (LOX IMVI): 99.9%; growth at 10 µM (A549): 102%; growth at 10 µM (SF-539): 104%; growth at 10 µM (K562): 95%; growth at 10 µM (OVCAR-3): 99.7%; growth at 10 µM (NCI-H226): 84.2%; growth at 10 µM (SF-295): 98.2%; growth at 10 µM (UO-31): 79%; growth at 10 µM (HCC 2998): 109%; growth at 10 µM (A498): 85.7%; growth at 10 µM (SK-MEL-2): 105%; growth at 10 µM (SK-MEL-28): 11%; growth at 10 µM [1]: 101%; growth at 10 µM (NCI-H460): 98.4%; growth at 10 µM (SNB-75): 87.5%; growth at 10 µM (HCT-15): 103%
